Data published in US20260234553A1, “COMPOSITIONS COMPRISING SUPRAMOLECULAR ASSEMBLIES OF PEPTIDE AMPHIPHILES AND ORGANIC CATIONS AND METHODS OF USE THEREOF” (Northwestern University, priority 2023, published 2026).
Several values for one entry are separate records, joined by “and”; a condition that tells them apart may be missing. Equal values may be shown once. *: point of attachment. Palmitoyl = CCCCCCCCCCCCCCCC(=O)*

Assays:
PA nanostructures = test: 1H DOSY NMR of OC free and with PA; assay type: binding
Procedure: Binding of organic cations (OCs) to PA. Initial screening of interactions of five different OCs with PA was performed using ^1H NMR spectroscopy in solution (FIG. 53). Here, ^1H signals lineshape from the ^1H NMR spectra of OCs were compared and analyzed against the corresponding ^1H signals from OC-PA samples. It is expected that ^1H signals will experience broadening if binding is occurring. In all cases we observed significant broadening except for tetramethylammonium (OC4), indicating its poor binding to PA nanostructures. ^1H DOSY NMR measurements. Spectra were measured by monitoring the change in intensity of the corresponding resonances as a function of the field gradient strength g (G/cm). A 2D sequence was used for diffusion measurement based on stimulated echo and LED which applies bipolar gradient pulses for diffusion (2 spoil gradients) together with water presaturation during relaxation delay (ledbpgppr2s Bruker sequence). ^1H DOSY data were first processed in Topspin (Fourier transformation, phasing, and baseline correction) and then the peak intensities of the corresponding resonances were extracted and fitted to the Stejskal-Tanner equation (Eq. 1) to give the value of diffusion coefficient D (m^2/s). Solution ^1H DOSY NMR data were fit to Eq. 1 using NMRTools.jl{, #28110}. ^1H HRMAS DOSY NMR data were fit using the Eq. 1 using Dynamics Center 2.6.3 software.
In the Eq. 1, I and I0 are the signal intensities in the presence and absence of gradient pulses, respectively; γ is the gyromagnetic ratio; g and δ are the gradient strength and their duration, respectively; σ=0.9, is the shape factor for the SMSQ gradient used in the experiment; Δ is the time separation between the edges of the gradient pulses.

CA1 pyramidal neurons = test: Whole-cell current clamp recordings in organotypic hippocampal slice cultures on PA or ICN layers; assay type: cell-based, rat; design: Rheobase: unit not given beside the values
Procedure: To physiologically dissect the unique responses activated by Na^+-ICN vs. K^+-ICN, we explored the effect of ICNs on the stability of the hippocampal network. This well-established ex vivo model allows for the ability to reliably acquire electrophysiological data using organotypic hippocampal slice cultures from neonatal rats. A PA or ICN layer was prepared on top of Millicell® cell culture inserts, inserted hippocampal organotypic slices (including the entorhinal cortex), and measured multiple electrophysiological parameters from CA1 pyramidal neurons at 6, 10, and 14 DIV using whole-cell current clamp recordings (FIG. 5A). Given the known heterogeneity of the hippocampus, the CA1 pyramidal neuron excitability was measured in the dorsal area.
All experiments were carried out according to the European and institutional guidelines for the care and use of laboratory animals (Council Directive 86/609/EEC and French National Research Council) and approved by the local health authority (Préfecture des Bouches-du-Rhône, Marseille). Young wild type Wistar rats (P5-P10), of either sex, were used to prepare organotypic hippocampal slice cultures. Animals were deeply anesthetized with isoflurane (5%) and killed by decapitation. The brain was removed and both hippocampi were individually dissected. Hippocampal slices (300 μm) were cut using a Vibratome (Leica, VT1200S, Wetzlar, Germany) in a sucrose based cutting solution kept at 3-4° C. containing for 1L: ultrapure water (988.5 mL), sucrose (97 g), NaHCO3 (2.18 g), D-glucose (1.8 g), KCl (0.1 g), CaCl2 1M (1 mL), MgCl2 1M (10 mL). Kynurenic acid and penicillin/streptomycin were added to the solution just before cutting to control cellular electrical activity and avoid contamination during slices preparation respectively. Only dorsal hippocampal slices were collected and placed on 20 mm latex membranes (Millicell, Millipore) inserted into 35 mm Petri dishes containing 1 mL of culture medium and maintained in an incubator at 34° C., 95% 02-5% CO2. The culture medium contained 25 mL MEM, 1.25 mL HBSS, 12.5 mL horse serum, 0.5 mL penicillin/streptomycin, 0.8 mL glucose (1 M), 0.1 mL ascorbic acid (1 mg/mL), 0.4 mL Hepes (1 M), 0.5 mL B27, and 8.95 mL sterile H2O. At least 1 h before collecting the slices, PAs control, OC-PA KCl or OC-PA NaCl were painted on the external surface of the latex membranes by dragging a pipette (50 μL of annealed PAs control or OC-PAs) to extrude a thin coat of material and let organotypic slice cultures grow on it. The culture medium was changed regularly (every 3 days). Organotypic hippocampal slice cultures were used at 6, 10 and 14 DIV to perform electrophysiological recordings and at 10 DIV to perform immunostainings.
To perform electrophysiological recordings, the Millicell membrane containing the slices treated with PAs or OC-PAs was cut with a scalpel and transferred to a recording chamber perfused with oxygenated artificial cerebrospinal fluid (aCSF). This solution was maintained at 31° C. and contained: 125 mM NaCl, 26 mM NaHCO3, 3 mM CaCl2, 2.5 mM KCl, 2 mM MgCl2, 0.8 mM NaH2PO4, 10 mM D-glucose. It was finally equilibrated with 95% O2-5% CO2. Neurons were visualized under an upright microscope (Olympus BX50WI) in phase contrast by infrared video-microscopy using a 60× immersion objective. Whole-cell patch-clamp recordings were obtained from CA1 pyramidal neurons in dorsal hippocampal organotypic cultures at DIV6,10 and 14. Patch-clamp pipettes (7-9 MΩ) were filled with a solution containing (mM): K-gluconate 120, KCl 20, HEPES 10, EGTA 0, MgCl2 2, Na2ATP 2, and NaGTP 0.3 (pH 7.4). CA1 pyramidal neurons were recorded in whole cell current clamp with a MultiClamp 700B amplifier (Axon Instruments), digitalized at 20 kHz with Digidata 1440A (Molecular Devices), low pass filtered at 10 kHz, and acquired with Clampex software (Molecular Devices). For current-clamp recordings, pipette capacitance was compensated, and the bridge was balanced. […]

[1] = Anomalous small angle X-ray scattering (ASAXS) of Rb+ around PA and OC-PA; assay type: physicochemical
Source text: An anomalous small angle X-ray scattering (ASAXS) was used to deduce the spatial distribution of Rb^+ surrounding charged, twisted peptide amphiphile (PA) bilayer. ASAXS relies on the measurements of the subtle changes in the X-ray energy-dependent scattered intensity profiles from the combined counterion (here, Rb^+)-supramolecular assembly system. These changes arise due to strong dispersion corrections [f′(E), f″(E)] to the form factor (scattering/absorption power) of an atom or an ion when the X-ray energy E is close to the binding energy of a core-shell electron in the atom or the ion [(here, Rb^+ K-edge EK=15.2 keV.
Scattered intensity profiles were measured from 1 mM PA in solutions containing either 66 mM RbCl or 50 mM RbCl and 16 mM OC—Cl at 4 X-ray energies below the Rb^+ K edge (Table 8). The non-resonant
The block height h=1 nm is empirically selected for two reasons. First, no artifacts are introduced by this artificial construct in the simulated scattered intensities over the relevant ASAXS q range of 0.05-2 nm^−1 (FIG. 42). Second, this choice keeps the simulations relatively fast. The distribution of Rb^+ is assumed to follow the shape of each parallelepiped block (FIG. 43C), and consists of the condensed Rb^+ layer, which is associated with the 2 ionizable amino acid groups in the outer periphery of the PA bilayer, followed by 12 layers with exponentially decaying Rb^+ concentration. The total number of Rb^+ associated is equal to the parallelepiped charge, which is calculated based on estimates of the area/molecule/leaflet (At=0.5 nm^2) from molecular dynamics (MD) simulations and a fit parameter for the fraction of amino acids that are in the ionized state (a). Based on this model the orientationally averaged non-resonant intensity and the cross-term are calculated and compared to the data in FIG. 42. […]
The SAXS profiles in FIG. 42 were analyzed using the discretized model in FIG. 43. […] The best-fit was then selected based on manual calculations of the differences between the measured and simulated profiles. […]

| Molecule | diffusion constant D (PA nanostructures; 160.0 mM EMIMCl in PBS pH 7.4, free organic cation) | diffusion constant D (PA nanostructures; 160.0 mM EMIMCl in PBS pH 7.4 in the presence of 10.0 mM PA) | diffusion constant Db (slow diffusing) (PA nanostructures; HRMAS DOSY, pelleted OC-PA) | diffusion constant Df (fast diffusing) (PA nanostructures; HRMAS DOSY, pelleted OC-PA) | rheobase, representative traces (CA1 pyramidal neurons; 6 DIV) | rheobase, representative traces (CA1 pyramidal neurons; 10 DIV) | rheobase, representative traces (CA1 pyramidal neurons; 14 DIV) [pA] | Rheobase (CA1 pyramidal neurons; 6 days in vitro) | Spikes evoked at 240 pA (CA1 pyramidal neurons; 6 days in vitro) | Rheobase (CA1 pyramidal neurons; 10 days in vitro) | Spikes evoked at 240 pA (CA1 pyramidal neurons; 10 days in vitro) | Rheobase (CA1 pyramidal neurons; 14 days in vitro) | Spikes evoked at 240 pA (CA1 pyramidal neurons; 14 days in vitro) | Rb^+ concentration near headgroups over bulk Rb^+ concentration ([1]; 1 mM PA in 66 mM RbCl) | degree of ionization a ([1]; 1 mM PA in 66 mM RbCl) | fraction charged (simulated intensities fitted to ASAXS) ([1]; Rb^+ counterions) [%] |
| --- | --- | --- | --- | --- | --- | --- | --- | --- | --- | --- | --- | --- | --- | --- | --- | --- |
| CCn1cc[n+](C)c1.[Cl-] [OC, 1-ethyl-3-methyl imidazolium chloride] | (1.179±0.002)·10^−9 m^2s^−1 | (2.900±0.023)·10^−10 m^2s^−1 | (3.326±0.004)·10^−12 m^2s^−1 | (1.630±0.001)·10^−10 m^2s^−1 | – | – | – | – | – | – | – | – | – | – | – | – |
| C16-VVAAEE (Palmitoyl-VVAAEE-NH2) [peptide amphiphile monomer, C16=palmitoyl, assembles into one-dimensional nanostructures] | – | – | – | – | 90 pA and 80 pA | 140 pA and 130 pA | 130 | 95.7 ± 5.6 and 86 ± 4.7 | 16.4 ± 1.1 and 16.2 ± 0.9 | 109.3 ± 4.8 and 121.8 ± 7.7 | 13.2 ± 0.7 and 12.8 ± 0.9 | 127 ± 4.4 and 131 ± 5.4 | 11.1 ± 0.5 and 10.3 ± 0.9 | ~ 40 × | 0.5 | 50 |
